# Reference: US12162855B2, “Tetrahydroquinolino derivatives for the treatment of metastatic and chemoresistant cancers” (THE TRUSTEES OF PRINCETON UNIVERSITY, priority 2018, dated 2024)
# Several values for one entry are separate records, joined by “and”; a condition that tells them apart may be missing. Equal values may be shown once. Marks after values point to notes of the source that are not given here.
# Columns and labels:
# bone marrow cells = assay: Ex vivo analysis of ALDH activity in murine lymphocytes (ALDEFLUOR); format: cell-based, mouse
# Method: Bone marrow cells were collected from 12-week old […] mice via tibia and femur flush with PBS and were passed through a 100-μm cell sieve. Thymocytes and spleenocytes were isolated from corresponding tissues and were isolated by physical disruption against a 100 μm cell sieve. Cells were washed via centrifugation/resuspension and then suspended at 10^7 cells/mL. The ALDEFLUOR™ assay with or without MBE1 was then conducted on these cells as described except with the addition of either […] (Biolegend #100308), anti-CD11c (BD Pharmigen #561119), anti-CD45 (eBioscience 30-F11), or anti-CD317 (Biolegend 129c1) during the incubation period at 1:200.
# Similar results (not shown) were obtained in other populations tested, including CD45-positive and CD3e-positive (CD45+CD3e+) and CD11c-positive and CD317-positive (CD11+CD317+).
# [1] = system: Sum-159-M1a-Aldh1a3 cells; assay: Lung metastasis xenograft, Sum-159-M1a-Aldh1a3 cells by tail-vein injection; format: in vivo, mouse; conditions: 25 mg/kg daily with paclitaxel 12.5 mg/kg every other day, 12 days
# Method: In another xenograft experiment, mice were injected with Sum-159-M1a-Aldh1a3 cells via tail-vein injection, and were randomized following injection. Mice were treated with MBE1.5 (25 mg/kg daily) or vehicle, and paclitaxel (12.5 mg/kg every other day) for twelve days. Lung metastasis progression was tracked by intravital bioluminescence.
# [2] = Plasma pharmacokinetics in mice by LC/MS/MS; format: in vivo, mouse; conditions: for half-life / AUC(0-inf) / Clearance: mice, dose 25 mg/kg; for AUC(0-inf): noncompartment model
# Method: Pharmacokinetic experiments were performed on 16-week old C57BL6 male mice. Mice were administered MBE1.5 (15% DMSO, 5% Kolliphor EL, 80% PBS) via IP injection. Blood was collected by terminal cardiac puncture at 15 minutes, 30 minutes, 1 hour, 3 hours, and 24 hours post-injection. Serum was obtained by blood separation via centrifugation at 16200 RCF for 1 min. Tissues were then collected following exsanguination. Serum and tissues were rapidly frozen in liquid nitrogen and submitted for pharmacokinetic evaluation.
# Plasma MBE1.5 concentration was measured with LC/MS/MS assay in mice PK studies.
# Chemicals: MBE1.5 and MBE2.0 were supplied as stocks (1 mg/mL) in MeOH with 1% DMSO. MBE2.0 was used as internal standard. HPLC grade acetonitrile and water were purchased from J.T. Baker (Center Valley, PA). The mouse plasma was purchased from Innovative Research (Novi, MI) for the preparation of plasma calibration standards.
# Preparation of standard solution: MBE1.5 stock was diluted in control mice plasma to obtain calibration range from 8.2 ng/mL to 18 μg/mL. 1 μg/mL MBE2.0 in methanol was used as a working internal standard (IS).
# Sample preparation: The plasma standard and mouse plasma samples (204) were spiked with 54 μL IS and deproteinized with 1204 acetonitrile and methanol (v/v 5:1). After centrifugation at 13000 rpm for 15 minutes, 254 of the supernatant was analyzed by LC-MS.
# Liquid Chromatographic/Mass spectrometry: Quantitation of MBE1.5 was performed using TSQ Quantum triple quadruple mass spectrometer equipped with an API electrospray ionization (ESI) source, a Surveyor MS pump, a Surveyor Autosampler, with Xcalibur data acquisition software (ThermoElectron, San Jose, CA, USA).
# LC conditions were as follows: mobile phase A: aqueous solution (0.1% formic acid); mobile phase B: acetonitrile (0.1% formic acid); flow rate 500 μL/min; gradient elution, 0 to 1 minute, 60% A; 1 to 2.5 minutes, 60% to 20% A; 2.5 to 7.0 minutes, 0% A, 7.0 to 9.0 minutes 0% A, 9.0 to 11.0 minutes, 0% to 60% A; and column: Luna® C18, 150×4.6 mm, 5 μm (Phenomenex, Torrance, CA). The retention times for MBE1.5 and IS were 6.3 minutes and 6.6 minutes, respectively.
# MS/MS conditions were as follows: in single reaction monitoring mode, m/z 313.2/178.2 (MBE1.5), m/z 281.2/119.1 (MBE2.0, IS); ion spray voltage, 4500 v; capillary temperature 350° C.; sheath gas pressure 20 arbitrary units; Aux gas pressure 50 arbitrary units; collision pressure 1.5 arbitrary units. The collision energy and tube lens were optimized for each compound.
# Calculation: Plasma calibration standards were used for the quantitation of MBE in plasma samples. The log linear regression was used for calibration curve to determine the concentration in plasma samples.
# Preliminary PK data was analyzed using noncompartment model by Winnolin 2.0.
# [3] = male, C57BL6, mouse, plasma, ip, 25 mg/kg, i.p., calculation: time point to 3 hr
# [4] = male, C57BL6, mouse, plasma, ip, 25 mg/kg, i.p., calculation: time point to 24 hr
smiles,measurement,setting,value
"CCc1ccccc1C(=O)Nc1cc2c(cc1F)NC(=O)CC2 [MBE1.5, 2-ethyl-N-(7-fluoro-2-oxo-1,2,3,4-tetrahydroquinolin-6-yl)benzamide]",effect on ALDEFLUOR activity of CD11c-positive bone marrow cells (FIG. 4B),bone marrow cells; murine bone marrow,not affected
same,effect on ALDEFLUOR activity of CD45-positive bone marrow cells (FIG. 4A),bone marrow cells; murine bone marrow,not affected
same,"effect on ALDEFLUOR activity of all populations tested (incl. CD45+CD3e+, CD11+CD317+)",bone marrow cells; murine cells,not affected
same,"mouse survival, Kaplan-Meier (FIG. 16B)",[1],extended survival in mice with late-stage established breast cancer lung metastasis
same,"Concentration in mouse plasma, individual mice","[2]; Time 0 hr, mice #1-#3, LOD 8.2 ng/mL",<LOD
same,"Concentration in mouse plasma, individual mice","[2]; Time 0.5 hr, i.p., mice #1-#3",6932 ng/mL and 3411 ng/mL and 4650 ng/mL
same,"Concentration in mouse plasma, individual mice","[2]; Time 1 hr, i.p., mice #1-#3",2842 ng/mL and 6295 ng/mL and 2815 ng/mL
same,"Concentration in mouse plasma, individual mice","[2]; Time 3 hr, i.p., mice #1-#3",1704 ng/mL and 3447 ng/mL and 849 ng/mL
same,"Concentration in mouse plasma, individual mice","[2]; Time 24 hr, i.p., mice #1-#3, LOD 8.2 ng/mL",<LOD
same,"Concentration in mouse plasma, individual mice, forced to calculate","[2]; Time 24 hr, i.p., mice #1-#3, integrated peak area less than LOD",0.002* μg/ml and 0.006* μg/ml and 0.005* μg/ml
same,"Concentration in mouse plasma, Mean","[2]; Time 24 hr, i.p., LOD 8.2 ng/mL",<LOD
same,concentration at 0.5 h,"[2]; male, C57BL6, mouse, plasma, ip, 25 mg/kg, Time 0.5 hr",5000 ng/mL
same,concentration at 1 h,"[2]; male, C57BL6, mouse, plasma, ip, 25 mg/kg, Time 1 hr",3980 ng/mL
same,concentration at 3 h,"[2]; male, C57BL6, mouse, plasma, ip, 25 mg/kg, Time 3 hr",2000 ng/mL
same,concentration at 24 h,"[2]; male, C57BL6, mouse, plasma, ip, 25 mg/kg, Time 24 hr, i.p., integrated peak area less than LOD, read-out: Concentration in mouse plasma, Mean, forced to calculate",4 ng/mL
same,half-life,[2]; [3],1.9 h
same,AUC(0-inf),[2]; [3],15700 ng·h/mL
same,half-life,[2]; [4],2.32 h
same,AUC(0-inf),[2]; [4],16900 ng·h/mL
same,Clearance,"[2]; i.p., calculation: time point to 3 hr",39.87 mL/h
same,Clearance,"[2]; i.p., calculation: time point to 24 hr",36.96 mL/h
